Assay results published in patent US20180136198A1, “SYNAPTIC VESICLE CYCLING ASSAYS AND SYSTEMS” (priority 2008, published 2018).

How the values were obtained:
Assay type in all cases: cell-based
[1] = test system: rat embryonic cortical neurons; assay: sypHy fluorescence (synaptic vesicle exocytosis) on Fluoroskan Ascent FL plate reader; conditions: 10 uM; GFP-fluorescence recorded at 5 Hz; 33 DIV
Experimental: It was determined that a Fluoroskan Ascent FL plate reader is capable of measuring aspects of synaptic vesicle cycling, e.g., exocytosis, in neuronal cells expressing a synaptophysin-pHluorin reporter. Rat embryonic cortical neurons were cultured in Greiner uClear 96-well plates. At 7 DIV, cultures were infected with sypHy-AAV. At 33 DIV, culture media was replaced with assay buffer, the plate was loaded onto the Fluoroskan Ascent FL plate reader, and GFP-fluorescence was recorded at 5 Hz. This plate reader uses a photomultiplier tube (PMT) to measure the fluorescence levels in a single well at a time. A baseline fluorescence level was determined, ionomycin (10 uM) was added to induce synaptic vesicle exocytosis, and the resulting change in fluorescence was measured on by plate reader. […] (FIG. 27.)

[2] = test system: rat embryonic cortical neurons; assay: synaptopHluorin fluorescence at whole-well level, Zeiss Axiovert Z1 inverted epifluorescence microscope
Source text: By introduction into a high percentage of neurons plated at high density within a well, synaptopHluorins were used to measure synaptic vesicle cycling at the whole-well, population level. One way synaptopHluorin was introduced into neurons was by viral infection. Viral delivery of synaptopHluorin was used to validate the ability to measure the synaptic vesicle cycle at the population level. Adeno-associated virus (MOI=1000) was used to deliver synaptopHluorin into rat embryonic cortical neurons plated in 96-well optically-clear plastic-bottomed plates (Nunc) at 11 days in vitro. At 21 days in vitro, neurons were imaged on a Zeiss Axiovert Z1 inverted epifluoresence microscope using low magnification optics (10×, 0.45 NA objective) insufficient to resolve individual synapses. Neurons in the presence or absence of external Ca^++ were treated with ionomycin, a calcium ionophore that triggers synaptic vesicle exocytosis and the resulting fluorescence of synaptopHluorin.

[3] = test system: Primary rat neuronal cultures; assay: synaptopHluorin fluorescence in 96-well plates on the plate::vision plate reader; conditions: Tyrode's solution, read every 2 seconds for 1 minute
Experimental: The plate::vision plate reader was evaluated for its ability to record the synaptic vesicle cycle in multiple wells in parallel. Primary rat neuronal cultures in 96-well plates were infected with the synaptopHluorin adeno-associated virus at 12 days in vitro. Culture medium was replaced with Tyrode's solution plus or minus external Ca^++. A baseline recording of fluorescence was measured in the entire plate on the plate::vision plate reader. Then, ionomycin was added to all wells, and fluorescence changes were measured every 2 seconds for 1 minute. […] These changes were similar to those observed when a similar experiment was performed on the Zeiss inverted epifluorescence microscope.

SMILES: C[C@H](CCC(=O)O)C[C@H](C)C[C@H](C)C(=O)/C=C(\O)[C@H](C)C[C@H](C)C/C=C/[C@@H](C)[C@@H](O)[C@@H](C)[C@@H](O)C[C@@H]1CC[C@@](C)([C@H]2CC[C@@](C)([C@@H](C)O)O2)O1 [ionomycin]
- increase in fluorescence intensity [1]: ~15%
- increase in synaptopHluorin signal ([2]; in the absence of external Ca++): about 3%
- increase in synaptopHluorin signal ([2]; in the presence of external Ca++): approximately 20%
- increase in fluorescence ([3]; absence of Ca++): < 5%
- increase in fluorescence ([3]; in the presence of Ca++): about 20%
